Data reported in patent US20110294726A1, “ANTIBIOTIC THERAPY TO REDUCE THE LIKELIHOOD OF DEVELOPING POST-INFECTIOUS IRRITABLE BOWEL SYNDROME” (CEDARS-SINAI MEDICAL CENTER, priority 2009, published 2011).

What was measured:
C. jejuni 81-176 [1] = assay: Tracking the acute colonization with C. jejuni in stool of gavaged rats; assay type: in vivo, Male Sprague-Dawley rats
Experimental: Male Sprague-Dawley rats (n=108) (200g) were quarantined for 10 days. Subsequently, fresh stool was collected by stroking the anus. Stool was cultured for C. jejuni on Campylobacter agar (BD Diagnostics, Franklin Lakes, N.J.). This was conducted to confirm the absence of infection or colonization of animals with C. jejuni prior to starting the study. […] In the first group (n=54), the rats were gavaged with 1 mL of a 5% solution of bicarbonate. This was given to acutely reduce gastric acidity. Subsequently, the rats were gavaged with a 1 mL suspension of 10^8 cfu/mL C. jejuni 81-176 in Campylobacter broth (C+/R− group). In the second group (n=54), the rats were gavaged with a 1 mL solution of rifaximin (200 mg) (C+/R+ group). The following day, the C+/R+ group received 3 sequential gavages. The first was another 1 mL dose of rifaximin. One hour later, they were gavaged with a 1 mL solution of 5% bicarbonate followed by a third gavage consisting of a 1 mL suspension of 10^8 cfu/mL C. jejuni 81-176 in Campylobacter broth. The following day, the C+/R+ group received a third and final gavage of 200 mg of rifaximin. After completion of the gavage, fresh stool was collected daily from all rats (both groups) and cultured for the presence of C. jejuni on Campylobacter agar. The number of days to first detectable C. jejuni in stool was recorded. Once colonization was noted, daily stool was cultured until 2 consecutive days with no detectable C. jejuni was observed. This was recorded as the time to C. jejuni clearance. In the post-infectious phase, the time to initial colonization, time for clearance and total duration of shedding were determined and compared between the C+/R− and C+/R+ groups. This was compared by Wilcoxon rank-sum test.

Shigella = conditions: humans, recent study (16); cited from earlier work
C. jejuni 81-176 [2] = assay: Determination of a post-infectious phenotype (stool form, % stool weight) 3 months after C. jejuni clearance; assay type: in vivo, Male Sprague-Dawley rats
Experimental: Male Sprague-Dawley rats (n=108) (200g) were quarantined for 10 days. Subsequently, fresh stool was collected by stroking the anus. Stool was cultured for C. jejuni on Campylobacter agar (BD Diagnostics, Franklin Lakes, N.J.). This was conducted to confirm the absence of infection or colonization of animals with C. jejuni prior to starting the study. […] In the first group (n=54), the rats were gavaged with 1 mL of a 5% solution of bicarbonate. This was given to acutely reduce gastric acidity. Subsequently, the rats were gavaged with a 1 mL suspension of 10^8 cfu/mL C. jejuni 81-176 in Campylobacter broth (C+/R− group). In the second group (n=54), the rats were gavaged with a 1 mL solution of rifaximin (200 mg) (C+/R+ group). The following day, the C+/R+ group received 3 sequential gavages. The first was another 1 mL dose of rifaximin. One hour later, they were gavaged with a 1 mL solution of 5% bicarbonate followed by a third gavage consisting of a 1 mL suspension of 10^8 cfu/mL C. jejuni 81-176 in Campylobacter broth. The following day, the C+/R+ group received a third and final gavage of 200 mg of rifaximin. After C. jejuni clearance was determined, the rats were housed for an additional 3 months (90 days). At 90 days, fresh stool was collected for 3 consecutive days. The stool was graded for consistency. To do this, a modified Bristol-like stool score was used. In this score, stool was graded as normal (1), soft and poorly formed (2), or watery (3). The stool was then weighed and air dried for 5 days followed by oven drying at 160° C. for 1 hour. The stool was reweighed and a % stool wet weight was determined. After completion of the study, the rats were euthanized by CO2 asphyxiation, weighed, and a laparotomy was performed. During the laparotomy, predefined segments of duodenum, jejunum, ileum, left colon, and rectum were resected, as previously described (12). Subsequently, the contents of each segment were cultured for the presence of C. jejuni. At the end of 3 months, the stool form for 3 days was averaged and then the two groups were compared. In another analysis, the number of days with normal stool in 3 days was determined and compared between groups. Finally, the variance in stool form over 3 days was also determined and compared between groups. The comparison was done by Wilcoxon rank-sum test.

With `CO[C@H]1/C=C/O[C@@]2(C)Oc3c(C)c(O)c4c(O)c(c5c(nc6cc(C)ccn65)c4c3C2=O)NC(=O)/C(C)=C\C=C\[C@H](C)[C@H](O)[C@@H](C)[C@@H](O)[C@@H](C)[C@H](OC(C)=O)[C@@H]1C` [rifaximin] the Longest colonization (C. jejuni 81-176 [1]; C+/R+ group) was 21 days, the “Rats with at least one day of detectable C. jejuni in stool (percent)” value (C. jejuni 81-176 [1]; C+/R+ group of 54 rats, P=0.016 vs C+/R−) was 98% and the “Rats with at least one day of detectable C. jejuni in stool (number)” value (C. jejuni 81-176 [1]; of 54 rats in the C+/R+ group, P=0.016 vs C+/R−) was 53 rats. For the same molecule, the “Detection of C. jejuni in stool in the acute phase (in words)” value (C. jejuni 81-176 [1]; rifaximin prophylaxis, rats) was “did not prevent C. jejuni from being detected in stool”, the “Time to first detectable C. jejuni” value (C. jejuni 81-176 [1]; stool culture, number of days after gavage, rifaximin 200 mg gavage on 3 days around inoculation, P<0.0001 vs C+/R−) was 1.3 ± 0.4 and the “Prevention of illness by prophylaxis of a Shigella infection (in words)” value (Shigella) was “able to prevent illness”. For the same molecule, the “Average % of stool dry weight” value (C. jejuni 81-176 [2]; 3 months after clearance, 3 day average, P NS) was 61.1 +/− 3.8%, the “Daily variability of Dry Weight” value (C. jejuni 81-176 [2]; 3 months after clearance, over 3 days, P<0.01) was 4.1 +/− 2.3 and the “Number of bowel movements normal in form out of 3 days (FIG. 2, in words)” value (C. jejuni 81-176 [2]; C+/R+ versus C+/R−, 3 months after clearance) was “closer to having perfectly normal bowel function”. The “Daily Variability of Stool Consistency” value (C. jejuni 81-176 [2]; over 3 days, 3 months after clearance, P<0.01) was “.24 +/− 0.5”, the “Long term effects of C. jejuni on the bowel (in words)” value (C. jejuni 81-176 [2]; rifaximin prophylaxis, stool form and % wet weight) was “reduced the long term effects of C. jejuni on the bowel” and the “Average Stool Consistency (Based on Bristol Stool Scale)” value (C. jejuni 81-176 [2]; score 1 normal, 2 soft and poorly formed, 3 watery, 3 day average, 3 months after clearance, P<0.00001) was 1.1 +/− 0.3.
